What was measured:
Assay in all cases: relative viability (nuclei count vs DMSO), 5 days (fraction); higher = more cells survive
[1] = compound: CCN1CCN(c2ccc(Nc3cc(N(C)C(=O)Nc4c(Cl)c(OC)cc(OC)c4Cl)ncn3)cc2)CC1 [BGJ398] + Cc1nc(Nc2ncc(C(=O)Nc3c(C)cccc3Cl)s2)cc(N2CCN(CCO)CC2)n1 [Dasatinib] (partner 0.075 µM)
Summary of the method: (§1)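 The day after seeding in 1536-well plates, lung cancer cell lines were treated by pin tool with a single drug, or with a fixed anchor-drug dose together with five library-drug doses (not always all listed) in √10 steps. After 5 days, a combined fix-and-stain solution (final 0.05% Triton X-100, 1% formaldehyde, 1 ug/ml Hoechst) was added. Nuclei counted on 4× images gave relative viability as treated counts over vehicle counts, reported as the median of duplicate plates.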

[2] = compound: C1=CC2=NC=CN=C2C=C1/C=C/3\C(=O)NC(=O)S3 + Nc1ncn([C@H]2C[C@H](O)[C@@H](CO)O2)c(=O)n1 [Decitabine] (partner 2 µM)
Summary of the method: as §1

[3] = compound: CCN1CCN(c2ccc(Nc3cc(N(C)C(=O)Nc4c(Cl)c(OC)cc(OC)c4Cl)ncn3)cc2)CC1 [BGJ398] + CCNC(=O)c1noc(-c2cc(C(C)C)c(O)cc2O)c1-c1ccc(CN2CCOCC2)cc1 [Luminespib] (partner 0.01 µM)
Summary of the method: as §1

[4] = compound: C1=CC2=NC=CN=C2C=C1/C=C/3\C(=O)NC(=O)S3 + CC(C)C[C@H](NC(=O)[C@H](Cc1ccccc1)NC(=O)c1cnccn1)B(O)O [Bortezomib] (partner 0.002 µM)
Summary of the method: as §1

With NCI-H1666 the relative viability ([1]; first compound 0.01 µM) was 0.764, the relative viability ([1]; first compound 0.03162 µM) was 0.802 and the relative viability ([1]; first compound 0.1 µM) was 0.911. It also gave a relative viability ([1]; first compound 0.3162 µM) of 0.759, a relative viability ([1]; first compound 1 µM) of 0.697 and a relative viability ([2]; first compound 0.02 µM) of 0.717. It also gave a relative viability ([2]; first compound 0.06325 µM) of 0.709, a relative viability ([2]; first compound 0.2 µM) of 0.775 and a relative viability ([2]; first compound 0.6325 µM) of 0.691. For the same cell line, the relative viability ([2]; first compound 2 µM) was 0.672, the relative viability ([3]; first compound 0.01 µM) was 1 and the relative viability ([3]; first compound 0.03162 µM) was 0.998. It also gave a relative viability ([3]; first compound 0.1 µM) of 0.99, a relative viability ([3]; first compound 0.3162 µM) of 1.04 and a relative viability ([3]; first compound 1 µM) of 0.988. The relative viability ([4]; first compound 0.02 µM) was 0.834, the relative viability ([4]; first compound 0.06325 µM) was 0.854 and the relative viability ([4]; first compound 0.2 µM) was 1.06. For the same cell line, the relative viability ([4]; first compound 0.6325 µM) was 0.649 and the relative viability ([4]; first compound 2 µM) was 0.673.
In the case of NCI-H1734, the relative viability ([1]; first compound 0.01 µM) is reported as 0.443, the relative viability ([1]; first compound 0.03162 µM) is reported as 0.53 and the relative viability ([1]; first compound 0.1 µM) is reported as 0.514. For the same cell line, the relative viability ([1]; first compound 0.3162 µM) was 0.425, the relative viability ([1]; first compound 1 µM) was 0.468 and the relative viability ([2]; first compound 0.02 µM) was 0.483. The relative viability ([2]; first compound 0.2 µM) was 0.517, the relative viability ([2]; first compound 0.6325 µM) was 0.501 and the relative viability ([2]; first compound 2 µM) was 0.489. For the same cell line, the relative viability ([3]; first compound 0.01 µM) was 0.178, the relative viability ([3]; first compound 0.03162 µM) was 0.179 and the relative viability ([3]; first compound 0.1 µM) was 0.22. It also gave a relative viability ([3]; first compound 0.3162 µM) of 0.171, a relative viability ([3]; first compound 1 µM) of 0.17 and a relative viability ([4]; first compound 0.02 µM) of 0.761. The relative viability ([4]; first compound 0.2 µM) was 1, the relative viability ([4]; first compound 0.6325 µM) was 0.919 and the relative viability ([4]; first compound 2 µM) was 0.747.
Cell Line NCI-H1755 has a relative viability ([1]; first compound 0.01 µM) of 0.406, a relative viability ([1]; first compound 0.03162 µM) of 0.464 and a relative viability ([1]; first compound 0.1 µM) of 0.45. It also gave a relative viability ([1]; first compound 0.3162 µM) of 0.411, a relative viability ([1]; first compound 1 µM) of 0.313 and a relative viability ([2]; first compound 0.02 µM) of 0.74. For the same cell line, the relative viability ([2]; first compound 0.06325 µM) was 0.628, the relative viability ([2]; first compound 0.2 µM) was 0.729 and the relative viability ([2]; first compound 0.6325 µM) was 0.689. It also gave a relative viability ([2]; first compound 2 µM) of 0.685, a relative viability ([3]; first compound 0.01 µM) of 0.498 and a relative viability ([3]; first compound 0.03162 µM) of 0.363. It also gave a relative viability ([3]; first compound 0.1 µM) of 0.339, a relative viability ([3]; first compound 0.3162 µM) of 0.606 and a relative viability ([3]; first compound 1 µM) of 0.417. The relative viability ([4]; first compound 0.02 µM) was 0.927, the relative viability ([4]; first compound 0.06325 µM) was 1.05 and the relative viability ([4]; first compound 0.2 µM) was 0.961. For the same cell line, the relative viability ([4]; first compound 0.6325 µM) was 0.917 and the relative viability ([4]; first compound 2 µM) was 0.859.
NCI-H1792 gave a relative viability ([1]; first compound 0.01 µM) of 0.644, a relative viability ([1]; first compound 0.03162 µM) of 0.783 and a relative viability ([1]; first compound 0.1 µM) of 0.741. It also gave a relative viability ([1]; first compound 0.3162 µM) of 0.497, a relative viability ([1]; first compound 1 µM) of 0.343 and a relative viability ([2]; first compound 0.02 µM) of 0.535. It also gave a relative viability ([2]; first compound 0.2 µM) of 0.6, a relative viability ([2]; first compound 0.6325 µM) of 0.513 and a relative viability ([2]; first compound 2 µM) of 0.374. It also gave a relative viability ([3]; first compound 0.01 µM) of 0.406, a relative viability ([3]; first compound 0.03162 µM) of 0.542 and a relative viability ([3]; first compound 0.1 µM) of 0.344. The relative viability ([3]; first compound 0.3162 µM) was 0.401, the relative viability ([3]; first compound 1 µM) was 0.277 and the relative viability ([4]; first compound 0.02 µM) was 0.863. The relative viability ([4]; first compound 0.06325 µM) was 0.734, the relative viability ([4]; first compound 0.2 µM) was 0.928 and the relative viability ([4]; first compound 0.6325 µM) was 0.952. The relative viability ([4]; first compound 2 µM) was 0.688.
With NCI-H1915 the relative viability ([1]; first compound 0.01 µM) was 0.308, the relative viability ([1]; first compound 0.03162 µM) was 0.306 and the relative viability ([1]; first compound 0.1 µM) was 0.309. For the same cell line, the relative viability ([1]; first compound 0.3162 µM) was 0.295, the relative viability ([1]; first compound 1 µM) was 0.261 and the relative viability ([2]; first compound 0.02 µM) was 0.238. It also gave a relative viability ([2]; first compound 0.06325 µM) of 0.281, a relative viability ([2]; first compound 0.2 µM) of 0.28 and a relative viability ([2]; first compound 0.6325 µM) of 0.252. It also gave a relative viability ([2]; first compound 2 µM) of 0.281, a relative viability ([3]; first compound 0.01 µM) of 0.675 and a relative viability ([3]; first compound 0.03162 µM) of 0.826. For the same cell line, the relative viability ([3]; first compound 0.1 µM) was 0.852, the relative viability ([3]; first compound 0.3162 µM) was 0.688 and the relative viability ([3]; first compound 1 µM) was 0.784. The relative viability ([4]; first compound 0.02 µM) was 0.985, the relative viability ([4]; first compound 0.06325 µM) was 1.05 and the relative viability ([4]; first compound 0.2 µM) was 1.05. For the same cell line, the relative viability ([4]; first compound 0.6325 µM) was 0.99 and the relative viability ([4]; first compound 2 µM) was 1.
NCI-H1975 gave a relative viability ([1]; first compound 0.01 µM) of 0.359, a relative viability ([1]; first compound 0.03162 µM) of 0.449 and a relative viability ([1]; first compound 0.1 µM) of 0.378. It also gave a relative viability ([1]; first compound 0.3162 µM) of 0.34, a relative viability ([1]; first compound 1 µM) of 0.316 and a relative viability ([2]; first compound 0.02 µM) of 0.362. It also gave a relative viability ([2]; first compound 0.06325 µM) of 0.359, a relative viability ([2]; first compound 0.2 µM) of 0.436 and a relative viability ([2]; first compound 0.6325 µM) of 0.37. For the same cell line, the relative viability ([2]; first compound 2 µM) was 0.359, the relative viability ([3]; first compound 0.01 µM) was 0.218 and the relative viability ([3]; first compound 0.03162 µM) was 0.179. For the same cell line, the relative viability ([3]; first compound 0.1 µM) was 0.204, the relative viability ([3]; first compound 0.3162 µM) was 0.237 and the relative viability ([3]; first compound 1 µM) was 0.261. For the same cell line, the relative viability ([4]; first compound 0.02 µM) was 0.355, the relative viability ([4]; first compound 0.06325 µM) was 0.365 and the relative viability ([4]; first compound 0.2 µM) was 0.401. It also gave a relative viability ([4]; first compound 0.6325 µM) of 0.368 and a relative viability ([4]; first compound 2 µM) of 0.36.
Work on NCI-H1993 yielded a relative viability ([1]; first compound 0.01 µM) of 0.694, a relative viability ([1]; first compound 0.03162 µM) of 0.595 and a relative viability ([1]; first compound 0.1 µM) of 0.611. For the same cell line, the relative viability ([1]; first compound 0.3162 µM) was 0.641, the relative viability ([1]; first compound 1 µM) was 0.578 and the relative viability ([2]; first compound 0.02 µM) was 0.527. For the same cell line, the relative viability ([2]; first compound 0.06325 µM) was 0.594, the relative viability ([2]; first compound 0.2 µM) was 0.737 and the relative viability ([2]; first compound 0.6325 µM) was 0.557. It also gave a relative viability ([2]; first compound 2 µM) of 0.507, a relative viability ([3]; first compound 0.01 µM) of 0.962 and a relative viability ([3]; first compound 0.03162 µM) of 0.916. The relative viability ([3]; first compound 0.1 µM) was 1.08, the relative viability ([3]; first compound 0.3162 µM) was 0.954 and the relative viability ([3]; first compound 1 µM) was 0.737. The relative viability ([4]; first compound 0.02 µM) was 0.892, the relative viability ([4]; first compound 0.06325 µM) was 1.02 and the relative viability ([4]; first compound 0.2 µM) was 1.05. It also gave a relative viability ([4]; first compound 0.6325 µM) of 0.952 and a relative viability ([4]; first compound 2 µM) of 0.724.
Cell Line NCI-H2009 has a relative viability ([1]; first compound 0.01 µM) of 0.275, a relative viability ([1]; first compound 0.03162 µM) of 0.311 and a relative viability ([1]; first compound 0.1 µM) of 0.295. The relative viability ([1]; first compound 0.3162 µM) was 0.329, the relative viability ([1]; first compound 1 µM) was 0.297 and the relative viability ([2]; first compound 0.02 µM) was 0.353. It also gave a relative viability ([2]; first compound 0.06325 µM) of 0.388, a relative viability ([2]; first compound 0.2 µM) of 0.358 and a relative viability ([2]; first compound 0.6325 µM) of 0.381. For the same cell line, the relative viability ([2]; first compound 2 µM) was 0.352, the relative viability ([3]; first compound 0.01 µM) was 1.06 and the relative viability ([3]; first compound 0.03162 µM) was 1.05. For the same cell line, the relative viability ([3]; first compound 0.1 µM) was 1.03, the relative viability ([3]; first compound 0.3162 µM) was 1.02 and the relative viability ([3]; first compound 1 µM) was 0.972. It also gave a relative viability ([4]; first compound 0.02 µM) of 0.954, a relative viability ([4]; first compound 0.06325 µM) of 1.07 and a relative viability ([4]; first compound 0.2 µM) of 1.11. For the same cell line, the relative viability ([4]; first compound 0.6325 µM) was 0.969 and the relative viability ([4]; first compound 2 µM) was 0.801.

From the supplement of paper PMC10307832
